Experimental data published in patent US8785446B2, “Treating post-seizure patients” (priority 2009, dated 2014).
“Also recorded” adds a separate entry of the source.

How the values were obtained:
PKC = PKC activity (ELISA) after hypoxic seizures and in vivo AMPAR antagonist treatment; set-up: species or system rat; conditions: 6 hours post-hypoxic seizures; vs vehicle
Experimental: (§1) Protein kinase A (PKA) […] mediates the phosphorylation of GluR1 S845 and protein kinase C (PKC) is involved in the phosphorylation of both GluR1 S831 (Kameyama et al., 1998; Mammen et al., 1997) and GluR2 S880 (Seidenman et al., 2003). […] Similarly, CaMKII activity increased at 1 hour post-seizures before returning to baseline levels at 6 hours post-hypoxia. […] The rapid seizure-induced activation of these protein kinases are occurring coincident with the alterations in phosphorylation state of their known substrates, GluR1 S831, GluR1 S845, and GluR2 S880.
(§2) To determine whether seizure-induced activation of AMPAR plays a critical role in the alterations in EPSCs and subunits reported here, we examined whether pharmacologic inhibition of AMPARs in vivo following hypoxic seizures leads to a decrease in the activity of Ca^2+ dependent protein kinases and GluR1 subunit phosphorylation state. […] Within 30 minutes after hypoxic seizures, rats were treated with a single dose of systemically administered AMPAR antagonists NBQX (20 mg/kg), topiramate (30 mg/kg) or GYKI-53773 (7.5 mg/kg), and compared to vehicle-treated (0.1 ml PBS) hypoxic controls and normoxic littermates. These treatment doses are the same as the treatment paradigm in which we previously observed an attenuation of long-term epileptogenic changes (Koh et al., 2004). […] Importantly, blockade of AMPAR-mediated neurotransmission is the common mechanistic feature of these three structurally unrelated compounds and may represent the potential mode of mediating alterations.

PKA = PKA activity (ELISA) after hypoxic seizures and in vivo AMPAR antagonist treatment; set-up: species or system rat; conditions: 1 hour following hypoxic seizures; vs vehicle
Experimental: as §1, §2

[1] = system: AMPAR-mediated sEPSCs in CA1 neurons; test: AMPAR-mediated sEPSCs in ex vivo hippocampal slices after post-seizure treatment in vivo; set-up: species or system rat; conditions: for sEPSC amplitude / sEPSC frequency: hippocampal slices prepared 1 hour after administration post hypoxic seizure, vs vehicle; for acute and subacute enhancement in AMPAR EPSCs: post-treatment during the early period after seizure induction
Experimental: Neonatal seizures have been described to enhance the excitability of hippocampal networks as well as cause alterations in long-term network excitability (Jensen et al., 1991; Sanchez et al., 2001; Silverstein and Jensen, 2007; Cornejo et al., 2007), but their acute effects on AMPAR function have not been examined. We compared spontaneous (s) and miniature (m) AMPAR-mediated excitatory postsynaptic currents (EPSCs) in CA1 pyramidal neurons in P10 rat pup hippocampal slices removed 1 hour after hypoxia-induced seizures (hypoxic seizures) and normoxic control rat pups.
Following hypoxic seizures, NBQX, topiramate or GYKI-53773 were administered to the rat pups experiencing hypoxic seizures and hippocampal slices were prepared 1 hour after administration of AMPAR antagonists.

[2] = system: GluR1 S831 and GluR1 S845; test: AMPAR GluR1 subunit phosphorylation in hippocampus after post-seizure AMPAR antagonist treatment in vivo; set-up: species or system rat; conditions: for GluR1 S845 phosphorylation: 12 hours after hypoxia-induced seizures; for GluR1 S845 phosphorylation / GluR1 S831 phosphorylation: single systemic dose within 30 minutes after seizures, vs vehicle; for GluR1 S831 phosphorylation: 12 hours after hypoxic seizures; for GluR1 subunit phosphorylation: post-treatment during the early period after seizure induction
From the text: The strength of synaptic transmission in intact neuronal networks, such as in LTP, can be regulated by altered AMPAR function mediated by phosphorylation of GluR1 S831 and GluR1 S845 (Barria et al., 1997; Lee et al., 2000; Lee et al., 2003).
To determine whether seizure-induced activation of AMPAR plays a critical role in the alterations in EPSCs and subunits reported here, we examined whether pharmacologic inhibition of AMPARs in vivo following hypoxic seizures leads to a decrease in the activity of Ca^2+ dependent protein kinases and GluR1 subunit phosphorylation state. […] Within 30 minutes after hypoxic seizures, rats were treated with a single dose of systemically administered AMPAR antagonists NBQX (20 mg/kg), topiramate (30 mg/kg) or GYKI-53773 (7.5 mg/kg), and compared to vehicle-treated (0.1 ml PBS) hypoxic controls and normoxic littermates.

[3] = cited from earlier work
CaMKII = CaMKII activity (ELISA) after hypoxic seizures and in vivo AMPAR antagonist treatment; conditions: 1 hour following hypoxic seizures; in vivo administration vs vehicle
Experimental: as §1, §2

hypoxia-induced seizures = conditions: post-seizure treatment within the first 48 hours following hypoxic seizures; cited from earlier work
KA-induced seizures = test: Susceptibility to KA-induced seizures 3 days after hypoxic seizures at P10; assay type: in vivo, rat
Experimental: We have previously reported that enhanced hippocampal excitability observed in rat pups following hypoxia-induced seizures is reflected in the increased susceptibility to KA-induced seizures in these animals at both short (72-96 h) and long (40+ days) intervals following the initial seizures at P10 (Koh et al., 2004).

GluR2-lacking AMPARs = test: Evoked EPSC recording in CA1 pyramidal neurons of hippocampal slices removed 1 hour after hypoxic seizures; assay type: cell-based, rat; conditions: bath application 10 μM; slices 1 hour after in vivo seizures in P10 pup; compared to normoxic controls
Experimental: The age window around P10-12 is characterized by a relative preponderance of Ca^2+ permeable AMPARs in hippocampal and neocortical neurons resulting from a developmentally regulated decrease in GluR2 subunit expression (Sanchez et al., 2001; Durand and Zukin, 1993; Talos et al., 2006b; Kumar et al., 2002). Additionally, hypoxic seizures have been previously associated with a decrease in the expression of GluR2 mRNA and protein 48 hours following the induction of seizures (Sanchez et al., 2001). However the acute alterations in the phosphorylation and function of GluR-2 lacking AMPARs following hypoxic seizures have not been well-characterized. […] Expression of inwardly rectifying AMPAR-mediated currents can result from an increase in phosphorylation of GluR2 S880 and resultant trafficking of the GluR2 subunit out of the synaptic membrane (Chung et al., 2000; Kim et al., 2001; Seidenman et al., 2003). Indeed, GluR2 S880 phosphorylation was increased in the hippocampus of rats experiencing hypoxic seizures as compared to normoxic litter mates, maximal at 12 hours post hypoxia. This seizure-induced phosphorylation of GluR2 S880 may contribute to the subacute changes in GluR2 expression reported previously (Sanchez et al., 2001), as well as increased inward rectification of EPSPs reported above.

neonatal seizures = conditions: cited from earlier work

In the case of CC(=O)N1N=C(c2ccc(N)cc2)c2cc3c(cc2C[C@H]1C)OCO3 [GYKI-53773], the “seizure-induced increase in PKC activity” value (PKC) is reported as “significantly reduced; also recorded: blocked”, the “seizure-induced PKA activation” value (PKA) is reported as “blocked” and the sEPSC amplitude [1] is reported as “significantly attenuated”. The sEPSC frequency [1] was “attenuation”, the “acute and subacute enhancement in AMPAR EPSCs” value (“acute and subacute enhancement” for short) [1] was “blocked” and the “GluR1 S845 phosphorylation” value [2] was “significantly reduced to baseline normoxia levels”. The “GluR1 S831 phosphorylation” value [2] was “significantly reduced to baseline normoxia levels”, the GluR1 subunit phosphorylation [2] was “blocked” and the cognitive impairment ([3]; preliminary human studies) was “less cognitive impairment”. The “activity of CaMKII” value (CaMKII) was “reduced to near baseline levels; also recorded: blocked”.
In the case of NS(=O)(=O)c1cccc2c1c([N+](=O)[O-])cc1nc(O)c(O)nc12 [NBQX], the “seizure-induced increase in PKC activity” value (PKC) is given as “significantly reduced; also recorded: blocked”, the “long-term increase in susceptibility to seizures” value (hypoxia-induced seizures) is given as “prevents” and the seizure-induced neuronal injury (hypoxia-induced seizures) is given as “prevents”. For the same molecule, the “seizure-induced PKA activation” value (PKA) was “reduced significantly; also recorded: blocked”, the sEPSC amplitude [1] was “significantly attenuated” and the sEPSC frequency [1] was “attenuation”. The “acute and subacute enhancement” value [1] was “blocked”, the latency to seizures (KA-induced seizures; P13, 20 mg/kg i.p., compared to vehicle treated hypoxic controls) was “significantly longer” and the maximal seizure severity (KA-induced seizures; P13, 20 mg/kg i.p., compared to vehicle-treated pups with prior hypoxic seizures) was “significantly lower”. The enhanced seizure susceptibility (KA-induced seizures; at P13 (72 hours post-hypoxic seizures), 20 mg/kg i.p. following hypoxic seizures, KA 2 mg/kg i.p.) was “significantly attenuated; also recorded: reversal”, the “GluR1 S845 phosphorylation” value [2] was “significantly reduced to baseline normoxia levels” and the “GluR1 S831 phosphorylation” value [2] was “significantly reduced to baseline normoxia levels”. For the same molecule, the GluR1 subunit phosphorylation [2] was “blocked” and the “activity of CaMKII” value (CaMKII) was “reduced to near baseline levels; also recorded: blocked”.
In the case of CCCC(=O)N[C@@H](Cc1ccc(O)cc1)C(=O)NCCCCNCCCNCCCN [PhTX-433], the “eEPSCs in CA1 pyramidal neurons post-hypoxia” value (GluR2-lacking AMPARs) is reported as “blocked the majority of eEPSCs”.
In the case of O=C1NC(=O)C(c2ccccc2)(c2ccccc2)N1 [phenyloin], the “infants with neonatal seizures in whom efficacy for acute seizure suppression is lacking” value (neonatal seizures; first line therapy) is listed as ~50% and the “effect on long-term outcome” value (neonatal seizures; infants with neonatal seizures) is listed as “no effect”.
For CC1(C)O[C@@H]2[C@@H](CO[C@@]3(COS(N)(=O)=O)OC(C)(C)O[C@@H]23)O1 [topiramate], the “seizure-induced increase in PKC activity” value (PKC) is given as “blocked”, the “long-term increase in susceptibility to seizures” value (hypoxia-induced seizures) is given as “prevents” and the seizure-induced neuronal injury (hypoxia-induced seizures) is given as “prevents”. For the same molecule, the “seizure-induced PKA activation” value (PKA) was “reduced significantly; also recorded: blocked”, the sEPSC amplitude [1] was “significantly attenuated” and the sEPSC frequency [1] was “attenuation”. For the same molecule, the “acute and subacute enhancement” value [1] was “blocked”, the “GluR1 S845 phosphorylation” value [2] was “significantly reduced to baseline normoxia levels” and the “GluR1 S831 phosphorylation” value [2] was “significantly reduced to baseline normoxia levels”. The GluR1 subunit phosphorylation [2] was “blocked”, the “threshold for memory impairment” value ([3]; healthy volunteers and patients with epilepsy) was “lower than lamotrigine and valproate” and the “activity of CaMKII” value (CaMKII) was “reduced to near baseline levels; also recorded: blocked”.
